Test results: patent publication US7351736B2, “Therapeutic compositions (II)” (priority 1998, dated 2008)
Where two headings read alike, the source gives them in different places. Blank lines part the entries; values can stand above or below the molecule they belong to.

Columns and labels:
[1] = human, cited from earlier work
[2] = liquid diet, glucose (47% of caloric content) substituted; cited from earlier work
[3] = test system: primary hippocampal cultures; test: Hippocampal microisland cultures with or without amyloid β1-42; type: cell-based, Wistar embryos; conditions: for neuronal cell number per microisland (mean): increase from a mean of 30
Experimental: The serum free medium used from 0 to day 4 contained Neurobasal medium with B27 supplement diluted 50 fold (Life Technology, Gaithersburg, Md.) to which was added: 0.5 mM L-glutamine, 25 μM Na L-glutamate, 100 U/ml penicillin and 100 μg/ml streptomycin. After day 4, DMEM/F12 medium containing 5 μM insulin, 30 nM 1-thyroxine, […] progesterone, 30 nM Na selenite 100 U/ml penicillin and 100 μg/ml streptomycin were used.
The primary hippocampal cultures were removed from Wistar embryos on day 18 and dispersed by gentle agitation in a pipette. The suspension was centrifuged at 1,500×g for 10 min and the supernatant discarded. The pellet was resuspended in new media to a final cell count of […]. Ten μl of this suspension was pipetted into the center of poly D-lysine coated culture wells and the plates incubated at 38° C. for 4 hrs and then 400 μl of fresh Neurobasal media was added. After 2 days of incubation, half of the media was exchanged for fresh media and the incubation continued for 2 more days. After day 4, the medium was changed with DMEM/F12 medium containing 5 μM insulin, 30 nM 1-thyroxine, 20 nM progesterone, 30 nM Na selenite 100 U/ml penicillin and 100 μg/ml streptomycin. […] These media were exchanged 2 days later (day 8) and the cells were fixed on day 10 and stained with anti MAP2 (Boehringer Manheim, Indianapolis Ind.) to visualize neurons and vimentin and GFAP (Boehringer) to visualize glial cells.

[4] = parameters: species or system rats; conditions: rat, in vivo, 30 min
Experimental: Control rats (n=2) were killed at 60 and 180 minutes after ingestion of yoghurt while triolide fed rats were killed at 80, 140, 150 and 155 minutes. Blood samples were taken for assay of (R)-3-hydroxybutyrate. Brains were funnel frozen and later extracted in perchloric acid and extracts neutralised and assayed. Blood levels of (R)-3-hydroxybutyrate were measured using a […] assay of Anal. Biochem (1983) 131, p478-482. 1.0 ml of a solution made up from 2-amino-2-methyl-1-propanol (100 mM pH 9.9, 0.094 g/10 ml), NAD^+ (30 mM, 0.199 g/10 ml) and EDTA (4 mM, 0.015 g/10 ml) was added to each of a number of cuvettes and 4 μl sample or (R)-3-hydroxybutyrate control.
The ability of orally administered (R)-3-hydroxybutyrate and the linear oligomers of Comparative examples 1 and 2 to raise blood ketone body levels was investigated as follows. Rats were fasted overnight and then gavaged with 100 μl/100 g bodyweight of 4M (R)-3-hydroxybutyrate brought to pH 7.4 using methyl glucamine. Plasma levels of (R)-3-hydroxybutyrate were measured at 0.62 mM after 30 minutes as compared to 3 mM when 9M (R)-3-hydroxybutyrate is used.
This procedure was repeated with 2M solutions of the mixtures (R)-3-hydroxybutyrate oligomers and their acetoacetyl esters described in Comparative Examples 1 and 2.

[5] = Rats fed triolide in 'Hob-Nob' biscuit, ill effects; type: in vivo; conditions: two rats fed approximately 1.5 g triolide each in 'Hob-Nob' biscuit; after two weeks
[6] = Oral administration of triolide in yoghurt to rats, plasma (R)-3-hydroxybutyrate; type: in vivo, Wistar rats; conditions: about 0.4 g triolide in yoghurt
Experimental: The ability of orally administered triolide to raise blood ketone levels was investigated as follows. The day before the experiment commenced, 12 Wistar rats weighing 316+10 g were placed in separate cages. They had no access to food for 15 hours prior to presentation with triolide containing compositions, but water was provided ad libitum.
On the morning of the experiment 0.64 g of triolide was mixed with 5 g Co-op brand Black Cherry yoghurt in separate feeding bowls for 9 of the rats. The remaining 3 rats were given 5 g of the yoghurt without the triolide as controls. The yoghurt containing bowls were placed in the cages and the rats timed while they ate. Two of the three control rats ate all the yoghurt and four of the […] ate approximately half the provided amount. The remaining six rats slept.
Control rats (n=2) were killed at 60 and 180 minutes after ingestion of yoghurt while triolide fed rats were killed at 80, 140, 150 and 155 minutes. Blood samples were taken for assay of (R)-3-hydroxybutyrate. Brains were funnel frozen and later extracted in perchloric acid and extracts neutralised and assayed. Blood levels of (R)-3-hydroxybutyrate were measured using a […] assay of Anal. Biochem (1983) 131, p478-482. […]

[7] = unesterified state, room temperature; cited from earlier work
[8] = presence of (R)-3-hydroxybutyrate, whether β1-42 was present or not

Structure (SMILES): C[C@@H](O)CC(=O)[O-].[Na+] [sodium salts of (R)-3-hydroxybutyrate]
toxicity on intravenous infusion ([1]; in vivo, iv): non-toxic
decreasing leucine oxidation ([1]; intravenous infusion): ineffective
glucose free fatty acids and glycerol concentration ([1]; intravenous infusion): capable of decreasing

Structure (SMILES): CC(O)CCO (racemic) [racemic 1,3 butandiol]
blood (R)-3-hydroxybutyrate concentration [2]: 0.98 mM
blood acetoacetate concentration [2]: 0.33 mM
rise of blood ketone concentration [2]: about 10 fold

plasma level of (R)-3-hydroxybutyrate [4]: 3000 µM
plasma level of (R)-3-hydroxybutyrate ([4]; pH 7.4): 620 µM
Structure (SMILES): C[C@@H](O)CC(=O)O [(R)-3-hydroxybutyrate, (R)-3-hydroxybutyric acid]
neuronal cell number per microisland (mean) ([3]; 8 mM (R)-3-hydroxybutyrate added to cultures containing amyloid β1-42): 70 cells per microisland
neuronal cell number per microisland (mean) ([3]; 8 mM (R)-3-hydroxybutyrate, no amyloid β1-42): 70 cells per microisland
length of axons [3, 8]: increased
number of dendritic outgrowths [3, 8]: increased

melting point: 107 to 108 °C
ill effects [5]: no ill effects
ill effects from ingestion of triolide [6]: no ill effects
Structure (SMILES): C[C@@H]1CC(=O)O[C@H](C)CC(=O)O[C@H](C)CC(=O)O1 [triolide, (R,R,R)-4,8,12-trimethyl-1,5,9-trioxadodeca-2,6,10-trione]

Structure (SMILES): CC(=O)CC(=O)O [acetoacetate]
half time of spontaneous decarboxylation to acetone [7]: about 30 days
